From US20030195242A1, “Use of Cox-2 inhibitors to prevent recurrences of herpesvirus infections” (priority 2002, published 2003)

Assays:
Format in all cases: in vivo, BALB/c mice
McKrae strain of HSV-1 [1] = experiment: Heat-stress reactivation of latent HSV-1 in mice: infectious virus on the ocular surface (celecoxib); details: not stressed
Description: (§1) To test the effect of a selective COX-2 inhibitor on recurrence of HSV, female BALB/c mice (The Jackson Laboratory, Bar Harbor, Me.) at 4 weeks of age were used. The strain of HSV and the method of propagation were as described in Example 1.
(§2) The mice were infected by the topical ocular route, and the establishment of a corneal infection was documented by slit lamp examination and ocular swabs on day 3 after infection. Only animals which were successfully infected were retained for use in these experiments. Thirty days after infection, groups of 15 latently infected and 15 uninfected mice were treated with the COX 2 inhibitor, celecoxib (G. D. Searle & Co., Skokie, Ill.). The dose of celecoxib that would inhibit viral reactivation was determined in a preliminary experiment in which groups of mice were injected intraperitoneally with 0.1, 0.5, 1.0, and 5.0 mg of celecoxib four times daily. The mice were treated one day before heat stress and the day of the heat stress. […] This dosage was used in all subsequent experiments.
(§3) Two days prior to hyperthermic stress, uninfected mice and latently infected mice were treated four times daily with celecoxib at a concentration of 0.5 mg per treatment. […] Units of Infectious virus were recorded as units of cytopathic effect over a period of seven days. […] The units of cytopathic effect were recorded over a seven day incubation period. […]

McKrae strain of HSV-1 [2] = experiment: Preliminary dose-finding experiment for inhibition of viral reactivation by celecoxib; details: IP four times daily; 0.1, 0.5, 1.0 and 5.0 mg tested; one day before and day of heat stress
Experimental: as §2

McKrae strain of HSV-1 [3] = experiment: Heat-stress reactivation of latent HSV-1 in mice: infectious virus in the trigeminal ganglia (celecoxib); details: not stressed
Description: as §1, §2, §3

McKrae strain of HSV-1 [4] = experiment: Heat-stress reactivation of latent HSV-1 in mice: infectious virus on ocular surface swabs (ASA)
Experimental: The McKrae strain of HSV-1 was propagated in Vero cells (ATCC No. CCL-81, American Type Culture Collection, Manassass, Va.), titered by viral plaque assay, and stored at −70° C. until used to infect animals.
(§4) Ocular swabs were immersed in 0.2 ml of complete tissue culture medium consisting of RPMI-1640, 10% fetal bovine serum (FBS), and an antibiotic-antimycotic mixture (Life Technologies, Grand Island, N.Y.). The swabs in culture medium were stored at 4° C. until testing by plaque assay. The determination of infectious virus in the cornea and in the trigeminal ganglia of animals were performed in a similar manner. Pairs of corneas and ganglia from individual mice were placed in separate tubes in 0.2 ml of complete medium, homogenized, clarified by centrifugation at 14,000×g for 5 minutes and the supernatant tested for infectious virus on Vero cells.
(§5) Male BALB/c strain mice (The Jackson Laboratory, Bar Harbor, Me.) were infected at 5 weeks of age by topical application of 5×10^5 plaque forming units of the McKrae strain HSV-1 following superficial scratching of the cornea. Documentation of the success of viral infection was determined by culturing ocular swabs taken on days 3 and 5 after infection. Animals without infectious virus on both days 3 and 5 in both eyes were excluded from use in these experiments. Thirty days after infection the eyes were swabbed to establish that infectious virus was no longer present on the ocular surface. Groups of uninfected age and sex matched mice were used as control animals in this study.
(§6) To test the effect of acetylsalicylic acid (ASA) on reactivation of HSV induced by heat stress, two sets of experiments were performed. In one set, groups of mice with latent HSV were immersed in 43° C. water up to their necks for 10 minutes. Following the hyperthermic stress, the animals were dried and given an intraperitoneal (IP) injection of 0.1 mg of ASA (Sigma Chemical Co., St. Louis, Mo.) suspended in 0.1 ml saline. At 8 and 16 hours after hyperthermia, the animals were again treated with ASA. Control mice were given IP injections of saline on the same schedule. At 24 hr after hyperthermic stress, the eyes were swabbed, the mice were sacrificed, and the corneas and trigeminal ganglia analyzed for infectious virus and viral DNA.
(§7) In a second experiment, groups of mice were treated IP for 3 days prior to hyperthermic stress at 8 hr intervals on each of the 3 days. The animals were then heat stressed, treated immediately after stress with ASA, and treated at 8 and 16 hr after hyperthermic stress. Control mice were given IP injections of saline on the same schedule. Two additional groups of mice were prophylactically treated by oral administration of 0.1 mg ASA or saline on the same dose schedule. In each experiment, animals were subdivided into those which were hyperthermically stressed and those which were not stressed. As above, the eyes of these animals were swabbed at 24 hr after stress and then sacrificed for analysis of infectious virus and viral DNA in their corneas and trigeminal ganglia.
(§8) Control mice for each of these experiments included animals which were latent for HSV-1 but which were not heat stressed. Subsets of this control group included animals placebo-treated and animals treated with ASA. Two additional control groups of animals were those which were not latent for HSV-1, but which were either treated with placebo or ASA on the schedules outlined above.

McKrae strain of HSV-1 [5] = experiment: Quantitation of viral DNA by PCR in cornea and trigeminal ganglion of latently infected mice (ASA); details: pooled from six mice
Description: Quantitation of viral DNA in tissue homogenates was made using the polymerase chain reaction (PCR), as previously reported. See B. M. Gebhardt et al., “9-(4-hydroxybutyl)-N^2-phenylguanine (HBPG), a thymidine kinase inhibitor, suppresses herpes virus reactivation in mice,” Antiviral Res., vol. 30, pp. 87-94 (1996); and J. M. Hill et al., “Quantitative analysis of polymerase chain reaction products by dot blot,” Analyt. Biochem., vol. 235, pp. 44-48 (1996). In brief, the procedure involves comparing DNA extracted from experimental and control tissue samples containing viral DNA, and performing serial dilutions with DNA from homologous tissue homogenates of uninfected animals. Using a log dilution series and previously determined quantities of viral DNA, it is possible to obtain a series of curves which permit the sensitive and reproducible determination of viral DNA in experimental samples. The sensitivity of this procedure permits the determination of differences of 100 viral genome equivalents per sample. In each experimental series, standard curves were conducted along with the analyses of the tissue homogenates from experimental (drug treated) and control (placebo treated) mice.
as §6, §7

McKrae strain of HSV-1 [6] = experiment: Heat-stress reactivation of latent HSV-1 in mice: infectious virus in cornea and trigeminal ganglia homogenates (ASA)
Experimental: as §4, §5, §6, §7, §8

[7] = 0.5 mg celecoxib four times daily IP for two days
[8] = 0.5 mg celecoxib four times daily orally for two days
[9] = Experiment 1, heat stressed, ASA 0.1 mg IP after stress and at 8 and 16 h, swabs 24 hrs after heat stress
[10] = Experiment 1, latent mice not stressed, ASA-treated
[11] = Experiment 2, heat stressed, ASA 0.1 mg IP after stress and at 8 and 16 h, swabs 24 hrs after heat stress
[12] = Experiment 2, latent mice not stressed, ASA-treated
[13] = Experiment 3, heat stressed, ASA 0.1 mg IP after stress and at 8 and 16 h, swabs 24 hrs after heat stress
[14] = Experiment 3, latent mice not stressed, ASA-treated
[15] = Cornea, ASA from time of hyperthermic stress, 24 h after stress
[16] = Prophylactic ASA IP, 3 days prior to stress, cornea, 24 hrs after stress
[17] = Prophylactic ASA IP, 3 days prior to stress, trigeminal ganglia, 24 hrs after stress
[18] = Prophylactic ASA oral gavage 0.1 mg, 3 days prior to stress, cornea, 24 hrs after stress
[19] = Prophylactic ASA oral gavage 0.1 mg, 3 days prior to stress, trigeminal ganglia, 24 hrs after stress
[20] = Trigeminal ganglia, ASA from time of hyperthermic stress, 24 h after stress

Cc1ccc(-c2cc(C(F)(F)F)nn2-c2ccc(S(N)(=O)=O)cc2)cc1 [celecoxib]
Infectious Virus on the Ocular Surface (mice positive/total) (McKrae strain of HSV-1 [1]; [7]): 0/12
Infectious Virus on the Ocular Surface (mice positive/total) (McKrae strain of HSV-1 [1]; [8]): 0/14
Most effective dose in preventing viral recurrence (McKrae strain of HSV-1 [2]): 0.5 mg
Infectious Virus in the Trigeminal Ganglia (mice positive/total) (McKrae strain of HSV-1 [3]; [7]): 0/12
Infectious Virus in the Trigeminal Ganglia (mice positive/total) (McKrae strain of HSV-1 [3]; [8]): 0/10

CC(=O)Oc1ccccc1C(=O)O [ASA, acetylsalicylic acid]
Levels of infectious virus in ocular tear film compared to placebo-treated mice (McKrae strain of HSV-1 [4]; ASA IP or orally for three days prior to hyperthermic stimulus, data not shown): significantly lower
Infectious Virus (no. positive/total), ocular surface swabs (McKrae strain of HSV-1 [4]; [9]): 2/12
Percent of ocular swab cultures which contained virus (McKrae strain of HSV-1 [4]; [9]): (17%)
Infectious Virus (no. positive/total), ocular surface swabs (McKrae strain of HSV-1 [4]; [10]): 0/10
Percent of ocular swab cultures which contained virus (McKrae strain of HSV-1 [4]; [10]): (0%)
Infectious Virus (no. positive/total), ocular surface swabs (McKrae strain of HSV-1 [4]; [11]): 3/12
Percent of ocular swab cultures which contained virus (McKrae strain of HSV-1 [4]; [11]): (25%)
Infectious Virus (no. positive/total), ocular surface swabs (McKrae strain of HSV-1 [4]; [12]): 0/8
Percent of ocular swab cultures which contained virus (McKrae strain of HSV-1 [4]; [12]): (0%)
Infectious Virus (no. positive/total), ocular surface swabs (McKrae strain of HSV-1 [4]; [13]): 3/12
Percent of ocular swab cultures which contained virus (McKrae strain of HSV-1 [4]; [13]): (25%)
Infectious Virus (no. positive/total), ocular surface swabs (McKrae strain of HSV-1 [4]; [14]): 0/10
Percent of ocular swab cultures which contained virus (McKrae strain of HSV-1 [4]; [14]): (0%)
Viral DNA (genome equivalents) (McKrae strain of HSV-1 [5]; ASA prophylaxis prior to heat stress, heat stressed, TG): 4.9 × 10^4 genome equivalents
Viral DNA (genome equivalents) (McKrae strain of HSV-1 [5]; ASA prophylaxis prior to heat stress, heat stressed, cornea): 0.4 × 10^4 genome equivalents
Viral DNA (genome equivalents) (McKrae strain of HSV-1 [5]; ASA prophylaxis schedule, not stressed, TG): 2.3 × 10^2 genome equivalents
Viral DNA (genome equivalents) (McKrae strain of HSV-1 [5]; ASA prophylaxis schedule, not stressed, cornea): <1 × 10^2 genome equivalents
Viral DNA (genome equivalents) (McKrae strain of HSV-1 [5]; Heat stressed, TG, ASA from time of stress): 2.1 × 10^4 genome equivalents
Viral DNA (genome equivalents) (McKrae strain of HSV-1 [5]; Heat stressed, cornea, ASA from time of stress): 0.9 × 10^3 genome equivalents
Viral DNA (genome equivalents) (McKrae strain of HSV-1 [5]; Not stressed, TG, ASA-treated): 1.5 × 10^2 genome equivalents
Viral DNA (genome equivalents) (McKrae strain of HSV-1 [5]; Not stressed, cornea, ASA-treated): <1 × 10^2 genome equivalents
Infectious Virus (no. positive/total), cornea homogenates (McKrae strain of HSV-1 [6]; [15]): 5/36
Percent of cornea homogenate cultures which contained virus (McKrae strain of HSV-1 [6]; [15]): (14%)
Infectious Virus (no. positive/total), cornea homogenates (McKrae strain of HSV-1 [6]; [16]): 2/10
Percent of cornea homogenate cultures which contained virus (McKrae strain of HSV-1 [6]; [16]): 20%
Infectious Virus (no. positive/total), trigeminal ganglia homogenates (McKrae strain of HSV-1 [6]; [17]): 3/10
Percent of trigeminal ganglia homogenate cultures which contained virus (McKrae strain of HSV-1 [6]; [17]): 30%
Infectious Virus (no. positive/total), cornea homogenates (McKrae strain of HSV-1 [6]; [18]): 2/14
Percent of cornea homogenate cultures which contained virus (McKrae strain of HSV-1 [6]; [18]): 14%
Infectious Virus (no. positive/total), trigeminal ganglia homogenates (McKrae strain of HSV-1 [6]; [19]): 4/14
Percent of trigeminal ganglia homogenate cultures which contained virus (McKrae strain of HSV-1 [6]; [19]): 29%
Infectious Virus (no. positive/total), trigeminal ganglia homogenates (McKrae strain of HSV-1 [6]; [20]): 8/36
Percent of trigeminal ganglia homogenate cultures which contained virus (McKrae strain of HSV-1 [6]; [20]): (22%)
